For the assay, the target named is T1, ALK (Homo sapiens, UniProt Q9UM73).
T1 construct: purchased Millipore
Nature of the assay: ALK kinase assay (HTRF). Format: biochemical. To be noted: apparent Ki from IC50 by Cheng-Prusoff; ALK (Millipore) 3 nM or 4 nM, 50 μM ATP, 1 h at room temperature; read-out: HTRF_ALK Human - Ki. (In TR-FRET formats the signal depends on donor and acceptor labels being close together.)

Where only a bound is given, the exact number is not on record here.

T1 sequence (Q9UM73 19-1620): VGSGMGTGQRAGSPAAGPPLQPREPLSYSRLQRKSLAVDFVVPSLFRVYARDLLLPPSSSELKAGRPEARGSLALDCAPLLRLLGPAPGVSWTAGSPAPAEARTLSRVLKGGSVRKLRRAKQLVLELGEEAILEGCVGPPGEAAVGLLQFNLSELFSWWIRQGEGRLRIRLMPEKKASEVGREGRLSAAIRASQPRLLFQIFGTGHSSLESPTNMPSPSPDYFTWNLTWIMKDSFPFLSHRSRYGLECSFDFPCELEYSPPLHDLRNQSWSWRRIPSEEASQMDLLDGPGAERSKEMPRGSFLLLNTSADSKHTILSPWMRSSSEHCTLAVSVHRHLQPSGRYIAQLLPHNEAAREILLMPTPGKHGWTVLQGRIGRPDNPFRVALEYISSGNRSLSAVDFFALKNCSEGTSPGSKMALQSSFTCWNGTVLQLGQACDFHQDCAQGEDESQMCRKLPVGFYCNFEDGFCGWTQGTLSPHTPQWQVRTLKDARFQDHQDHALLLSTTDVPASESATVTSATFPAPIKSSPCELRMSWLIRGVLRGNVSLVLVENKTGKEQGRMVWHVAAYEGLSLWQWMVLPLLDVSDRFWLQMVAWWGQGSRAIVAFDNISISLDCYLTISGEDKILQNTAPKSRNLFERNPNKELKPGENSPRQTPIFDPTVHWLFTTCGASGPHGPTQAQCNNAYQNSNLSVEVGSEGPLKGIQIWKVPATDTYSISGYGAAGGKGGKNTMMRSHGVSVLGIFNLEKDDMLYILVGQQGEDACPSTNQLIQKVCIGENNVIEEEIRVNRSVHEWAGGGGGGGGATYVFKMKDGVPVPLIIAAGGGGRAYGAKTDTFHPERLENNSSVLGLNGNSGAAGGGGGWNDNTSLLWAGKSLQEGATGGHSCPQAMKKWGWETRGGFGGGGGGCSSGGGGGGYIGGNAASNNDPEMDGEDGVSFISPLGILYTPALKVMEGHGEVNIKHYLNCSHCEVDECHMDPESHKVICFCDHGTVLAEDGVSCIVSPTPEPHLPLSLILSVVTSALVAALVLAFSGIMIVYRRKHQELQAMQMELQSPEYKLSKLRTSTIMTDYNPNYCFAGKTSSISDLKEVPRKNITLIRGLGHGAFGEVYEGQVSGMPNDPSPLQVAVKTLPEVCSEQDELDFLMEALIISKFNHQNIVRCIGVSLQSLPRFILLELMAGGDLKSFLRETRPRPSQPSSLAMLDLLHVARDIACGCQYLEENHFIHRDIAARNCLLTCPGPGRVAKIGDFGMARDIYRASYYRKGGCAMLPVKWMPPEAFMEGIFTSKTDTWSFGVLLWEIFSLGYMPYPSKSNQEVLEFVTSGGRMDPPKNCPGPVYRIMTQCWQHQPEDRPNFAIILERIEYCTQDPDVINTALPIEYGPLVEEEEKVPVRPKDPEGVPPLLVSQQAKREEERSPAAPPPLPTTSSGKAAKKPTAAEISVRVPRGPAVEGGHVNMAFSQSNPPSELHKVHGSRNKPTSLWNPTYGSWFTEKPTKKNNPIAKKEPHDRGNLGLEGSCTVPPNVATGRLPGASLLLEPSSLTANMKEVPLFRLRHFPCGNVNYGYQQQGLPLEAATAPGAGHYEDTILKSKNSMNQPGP

Take `COc1cc(N2CCNCC2)ccc1Nc1nc(NC2CCCCC2)cc2cn[nH]c(=O)c12` [Example 46, 7-(cyclohexylamino)-5-{[2-methoxy-4-(piperazin-1-yl)phenyl]amino}pyrido[3,4-d]pyridazin-4(3H)-one]: the Ki worked out at 3 nM.
With `COc1cc(N2CCNCC2)ccc1Nc1cc(Nc2c(Cl)cccc2Cl)nc2cn[nH]c(=O)c12` [Example 68, 2-[(2,6-dichlorophenyl)amino]-4-{[2-methoxy-4-(piperazin-1-yl)phenyl]amino}pyrido[2,3-d]pyridazin-5(6H)-one] the figure was 2 nM; with `COc1cc(C(=O)N2CCCC2)ccc1Nc1nc(Oc2ccccc2Cl)cc2cnnc(O)c12` [Example 105, (4-{[7-(2-chlorophenoxy)-4-hydroxypyrido[3,4-d]pyridazin-5-yl]amino}-3-methoxyphenyl)(pyrrolidin-1-yl)methanone], > 470 nM.
Take `COc1cc(N2CCNCC2)ccc1Nc1nc(Oc2cccc(F)c2F)cc2cnnc(O)c12` [Example 78, 7-(2,3-difluorophenoxy)-5-{[2-methoxy-4-(piperazin-1-yl)phenyl]amino}pyrido[3,4-d]pyridazin-4-ol]: the Ki was 4 nM.
In the case of `COc1cc(N2CCNCC2)ccc1Nc1nc(Nc2c(Cl)cccc2Cl)cc2cnnc(O)c12` [Example 10, 7-[(2,6-dichlorophenyl)amino]-5-{[2-methoxy-4-(piperazin-1-yl)phenyl]amino}pyrido[3,4-d]pyridazin-4-ol] it was 2 nM.
With `COc1cc2c(cc1Nc1nc(Cc3c(Cl)cccc3Cl)cc3cn[nH]c(=O)c13)CCNC2` [Example 88, 7-(2,6-dichlorobenzyl)-5-[(7-methoxy-1,2,3,4-tetrahydroisoquinolin-6-yl)amino]pyrido[3,4-d]pyridazin-4(3H)-one], the Ki is 4 nM.
With `COc1cc(N2CCNCC2)ccc1Nc1nc(Nc2cc(F)ccc2Cl)cc2cn[nH]c(=O)c12` [Example 27, 7-[(2-chloro-5-fluorophenyl)amino]-5-{[2-methoxy-4-(piperazin-1-yl)phenyl]amino}pyrido[3,4-d]pyridazin-4(3H)-one] the figure was 3 nM; with `COc1cc(C2CCNCC2)ccc1Nc1cc(Cc2c(Cl)cccc2Cl)nc2cn[nH]c(=O)c12` [Example 101, 2-(2,6-dichlorobenzyl)-4-{[2-methoxy-4-(piperidin-4-yl)phenyl]amino}pyrido[2,3-d]pyridazin-5(6H)-one], 1 nM; with `COc1cc(N2CCN(C(=O)CC(C)C)CC2)ccc1Nc1nc(Cc2c(Cl)cccc2Cl)cc2cn[nH]c(=O)c12` [Example 19, 7-(2,6-dichlorobenzyl)-5-({2-methoxy-4-[4-(3-methylbutanoyl)piperazin-1-yl]phenyl}amino)pyrido[3,4-d]pyridazin-4(3H)-one], > 4700 nM.
Consider `COc1cc(N2CCNCC2)ccc1Nc1nc(NCc2ccccc2)cc2cn[nH]c(=O)c12` [Example 40, 7-(benzylamino)-5-{[2-methoxy-4-(piperazin-1-yl)phenyl]amino}pyrido[3,4-d]pyridazin-4(3H)-one], for which the Ki was found to be 36 nM.
Regarding `COc1cc(N2CCNCC2)ccc1Nc1nc(Oc2c(F)cccc2F)cc2cn[nH]c(=O)c12` [Example 75, 7-(2,6-difluorophenoxy)-5-{[2-methoxy-4-(piperazin-1-yl)phenyl]amino}pyrido[3,4-d]pyridazin-4(3H)-one], the Ki worked out at 4 nM.
Regarding `O=c1[nH]ncc2cc(Cc3c(Cl)cccc3Cl)nc(Nc3ccc(N4CCNCC4)cn3)c12` [Example 14, 7-(2,6-dichlorobenzyl)-5-{[5-(piperazin-1-yl)pyridin-2-yl]amino}pyrido[3,4-d]pyridazin-4(3H)-one], the Ki came to 13 nM.
In the case of `COc1cc(N2CCNCC2)ccc1Nc1nc(Nc2c(F)cc(F)cc2Cl)cc2cnnc(O)c12` [Example 71, 7-[(2-chloro-4,6-difluorophenyl)amino]-5-{[2-methoxy-4-(piperazin-1-yl)phenyl]amino}pyrido[3,4-d]pyridazin-4-ol] it was 1 nM; in that of `COc1cc(CN2CCN(C)CC2)ccc1Nc1cc(Cc2ccccc2Cl)nc2cn[nH]c(=O)c12` [Example 116, 2-(2-chlorobenzyl)-4-({2-methoxy-4-[(4-methylpiperazin-1-yl)methyl]phenyl}amino)pyrido[2,3-d]pyridazin-5(6H)-one], 33 nM; in that of `COc1cc(N2CCNCC2)ccc1Nc1nc(Nc2nccs2)cc2cn[nH]c(=O)c12` [Example 56, 5-{[2-methoxy-4-(piperazin-1-yl)phenyl]amino}-7-(1,3-thiazol-2-ylamino)pyrido[3,4-d]pyridazin-4(3H)-one], 5 nM.
In the case of `COc1cc(N2CCNCC2)ccc1Nc1nc(Nc2ccccc2Cl)cc2cn[nH]c(=O)c12` [Example 24, 7-[(2-chlorophenyl)amino]-5-{[2-methoxy-4-(piperazin-1-yl)phenyl]amino}pyrido[3,4-d]pyridazin-4(3H)-one] it was 4 nM.
With `O=C1NCCNc2cc(Cc3c(Cl)cccc3Cl)nc(Nc3ccc(N4CCNCC4)cc3)c21` [Example 6, 8-(2,6-dichlorobenzyl)-6-{[4-(piperazin-1-yl)phenyl]amino}-1,2,3,4-tetrahydro-5H-pyrido[4,3-e][1,4]diazepin-5-one] the figure was 602 nM; with `COc1cc(N2CCNCC2)ccc1Nc1nc(Nc2ccc(F)c(Cl)c2Cl)cc2cnnc(O)c12` [Example 67, 7-[(2,3-dichloro-4-fluorophenyl)amino]-5-{[2-methoxy-4-(piperazin-1-yl)phenyl]amino}pyrido[3,4-d]pyridazin-4-ol], 2 nM.
As to `COc1cc(N2CCNCC2)ccc1Nc1nc(Nc2cccc(F)c2F)cc2cn[nH]c(=O)c12` [Example 37, 7-[(2,3-difluorophenyl)amino]-5-{[2-methoxy-4-(piperazin-1-yl)phenyl]amino}pyrido[3,4-d]pyridazin-4(3H)-one], the Ki was 3 nM.
With `Cc1c(Nc2nc(Cc3c(Cl)cccc3Cl)cc3cn[nH]c(=O)c23)ccc(N2CCNCC2)c1C` [Example 69, 7-(2,6-dichlorobenzyl)-5-{[2,3-dimethyl-4-(piperazin-1-yl)phenyl]amino}pyrido[3,4-d]pyridazin-4(3H)-one] the figure was 1 nM; with `COc1cc(N2CCNCC2)ccc1Nc1nc(Nc2cccc(Cl)c2Cl)cc2cn[nH]c(=O)c12` [Example 51, 7-[(2,3-dichlorophenyl)amino]-5-{[2-methoxy-4-(piperazin-1-yl)phenyl]amino}pyrido[3,4-d]pyridazin-4(3H)-one], 2 nM; with `COc1cc(N2CCNCC2)ccc1Nc1nc(Nc2cc(Cl)ccc2Cl)cc2cn[nH]c(=O)c12` [Example 28, 7-[(2,5-dichlorophenyl)amino]-5-{[2-methoxy-4-(piperazin-1-yl)phenyl]amino}pyrido[3,4-d]pyridazin-4(3H)-one], 4 nM.
Regarding `COCCNc1cc2cnnc(O)c2c(Nc2ccc(N3CCNCC3)cc2OC)n1` [Example 36, 7-[(2-methoxyethyl)amino]-5-{[2-methoxy-4-(piperazin-1-yl)phenyl]amino}pyrido[3,4-d]pyridazin-4-ol], the Ki was 26 nM.
With `O=C1NCCNc2nc(Cc3c(Cl)cccc3Cl)cc(Nc3ccc(N4CCNCC4)cc3)c21` [Example 4, 8-(2,6-dichlorobenzyl)-6-{[4-(piperazin-1-yl)phenyl]amino}-1,2,3,4-tetrahydro-5H-pyrido[2,3-e][1,4]diazepin-5-one] the figure was 940 nM.

The values above are taken from patent US20140155389A1, “BICYCLIC INHIBITORS OF ALK” (ABBVIE INC., priority 2011, published 2014).
